In patent publication US10562912B2 (C&C Research Laboratories, priority 2013, dated 2020):

Experiments:
Type in all cases: cell-based
STAT3 = molecular target: T1, STAT3 (Homo sapiens, UniProt P40763); assay: STAT3 reporter gene assay (luciferase), LNCaP stable cell line (pSTAT3-TA-luc), IL-6 stimulation
T1 construct: plasmid pSTAT3-TA-luc), which contains a stably operating STAT3 promoter; endogenous in cells
Method in brief: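 LNCaP cells stably carrying pSTAT3-TA-luc, in RPMI1640 with 3% DCC-FBS, were treated with compound and then stimulated with 10 ng/mL IL-6 for 24–48 h at 37 °C. Luciferase activity was measured in lysates. A parallel plate measured viability by CellTiter-Glo, with stimulated 0.1% DMSO wells as the positive control.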

LNCaP = assay: Cell growth inhibition assay, prostate cancer cell line LNCaP (medium with 10 ng/mL IL-6); details: Homo sapiens, medium supplemented with 10 ng/mL of IL-6, 10,000 cells/well
DU-145 = assay: Cell growth inhibition assay, prostate cancer cell line DU-145; details: Homo sapiens, DU-145 prostate cancer cell line
Method in brief: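 DU-145 and HCT116 cells were plated at 3,000 cells/well and SW626 at 5,000 cells/well, then treated with serially diluted compounds. After 72 to 96 hours at 37° C. under 5% CO2, viability was read by CellTiter-Glo luminescence against cell-free medium wells and 0.1% DMSO wells.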

T1 sequence (P40763 whole entry): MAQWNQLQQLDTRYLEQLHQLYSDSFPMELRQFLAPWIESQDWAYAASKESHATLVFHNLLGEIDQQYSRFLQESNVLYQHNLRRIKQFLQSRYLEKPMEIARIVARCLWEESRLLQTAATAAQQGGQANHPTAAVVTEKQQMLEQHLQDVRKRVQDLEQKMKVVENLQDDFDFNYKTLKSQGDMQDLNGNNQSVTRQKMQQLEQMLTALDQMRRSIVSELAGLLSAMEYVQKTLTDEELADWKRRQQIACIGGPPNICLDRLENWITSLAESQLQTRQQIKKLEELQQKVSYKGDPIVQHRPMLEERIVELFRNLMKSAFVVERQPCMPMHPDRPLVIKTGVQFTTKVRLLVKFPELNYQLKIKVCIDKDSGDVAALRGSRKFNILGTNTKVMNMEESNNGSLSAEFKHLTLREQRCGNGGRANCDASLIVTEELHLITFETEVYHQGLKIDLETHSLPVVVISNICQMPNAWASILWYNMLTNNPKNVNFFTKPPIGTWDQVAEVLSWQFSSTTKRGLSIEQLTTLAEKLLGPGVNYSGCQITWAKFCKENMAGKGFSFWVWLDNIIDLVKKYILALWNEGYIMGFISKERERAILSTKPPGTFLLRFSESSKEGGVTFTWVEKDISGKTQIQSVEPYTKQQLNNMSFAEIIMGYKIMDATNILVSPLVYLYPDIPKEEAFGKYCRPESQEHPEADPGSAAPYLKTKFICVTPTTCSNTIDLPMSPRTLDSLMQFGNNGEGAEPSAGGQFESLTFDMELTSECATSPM

Compound	IC50 (STAT3)	IC50 (LNCaP)	IC50 (DU-145)
CS(=O)(=O)Nc1ccc2sc(C(=O)Nc3cc(Cl)cc(Oc4ccc(C(F)(F)F)cc4)c3)cc2c1 [Example 465, N-(3-chloro-5-(4-(trifluoromethyl)phenoxy)phenyl)-5-(methylsulfonamido)benzo[b]thiophene-2-carboxamide]	0.12 µM	0.063 µM	0.048 µM
C=CCOc1cc(OC(F)(F)F)cc(C(C)(C)c2cc(Cl)cc(NC(=O)c3cc4cc(NS(C)(=O)=O)ccc4s3)c2)c1 [Example 78, N-(3-(2-(3-(allyloxy)-5-(trifluoromethoxy)phenyl)propan-2-yl)-5-chlorophenyl)-5-(methylsulfonamido)benzo[b]thiophene-2-carboxamide]	0.017 µM	0.038 µM	0.009 µM
CC(C)Oc1cc(CN2CCN(c3nnc(C(C)C)o3)CC2)cc(C(C)(C)c2cc(Cl)cc(NC(=O)c3cc4cc(NS(C)(=O)=O)ccc4s3)c2)c1 [Example 135, N-(3-chloro-5-(2-(3-isopropoxy-5-((4-(5-isopropyl-1,3,4-oxadiazol-2-yl)piperazin-1-yl)methyl)phenyl)propan-2-yl)phenyl)-5-(methylsulfonamido)benzo[b]thiophene-2-carboxamide]	0.14 µM	0.85 µM	0.3 µM
CC(C)(c1ccc(Cl)cc1)c1cc(Cl)cc(NC(=O)c2cc3cc(NS(=O)(=O)CCO)c(Cl)cc3s2)c1 [Example 188, 6-chloro-N-(3-chloro-5-(2-(4-chlorophenyl)propan-2-yl)phenyl)-5-((2-hydroxyethyl)sulfonamido)benzo[b]thiophene-2-carboxamide]	0.054 µM	0.056 µM	0.026 µM
C[S+]([O-])c1ccc(C(C)(C)c2cc(Cl)cc(NC(=O)c3cc4cc(NS(C)(=O)=O)ccc4s3)c2)cc1 (stereo not drawn) [Example 160, N-(3-chloro-5-(2-(4-(methylsulfinyl)phenyl)propan-2-yl)phenyl)-5-(methylsulfonamido)benzo[b]thiophene-2-carboxamide]	3.3 µM	> 1.1 µM	> 1.1 µM
CC(C)(c1ccc(Cl)cc1)c1cc(Cl)cc(NC(=O)c2cc3cc(NS(C)(=O)=O)c(Br)cc3s2)c1 [Example 173, 6-bromo-N-(3-chloro-5-(2-(4-chlorophenyl)propan-2-yl)phenyl)-5-(methylsulfonamido)benzo[b]thiophene-2-carboxamide]	0.011 µM	0.11 µM	0.009 µM
CC(C)(c1ccc(Cl)cc1)c1cc(Cl)cc(NC(=O)c2cc3cc(NS(C)(=O)=O)c(Cl)cc3s2)c1 [Example 172, 6-chloro-N-(3-chloro-5-(2-(4-chlorophenyl)propan-2-yl)phenyl)-5-(methylsulfonamido)benzo[b]thiophene-2-carboxamide]	0.016 µM	0.009 µM	0.005 µM
CCOc1cc(OC(F)(F)F)cc(C(C)(C)c2cc(Br)cc(NC(=O)c3cc4nc(NS(C)(=O)=O)ccc4s3)c2)c1 [Example 60, N-(3-bromo-5-(2-(3-ethoxy-5-(trifluoromethoxy)phenyl)propan-2-yl)phenyl)-5-(methylsulfonamido)thieno[3,2-b]pyridine-2-carboxamide]	0.063 µM	0.37 µM	0.17 µM
CC(C)Oc1cc(OC(F)(F)F)cc(C(C)(C)c2cc(Cl)cc(NC(=O)c3cc4cc(NS(C)(=O)=O)c(Cl)cc4s3)c2)c1 [Example 105, 6-chloro-N-(3-chloro-5-(2-(3-isopropoxy-5-(trifluoromethoxy)phenyl)propan-2-yl)phenyl)-5-(methylsulfonamido)benzo[b]thiophene-2-carboxamide]	0.005 µM	0.002 µM	0.001 µM
CS(=O)(=O)Nc1ccc2sc(C(=O)Nc3cc(Cl)cc(Oc4ccc(Cl)cc4Cl)c3)cc2c1 [Example 462, N-(3-chloro-5-(2,4-dichlorophenoxy)phenyl)-5-(methylsulfonamido)benzo[b]thiophene-2-carboxamide]	0.13 µM	0.33 µM	0.13 µM
CS(=O)(=O)Nc1ccc2sc(C(=O)Nc3cc(Cl)cc(Oc4ccc(F)c(Cl)c4)c3)cc2c1 [Example 461, N-(3-chloro-5-(3-chloro-4-fluorophenoxy)phenyl)-5-(methylsulfonamido)benzo[b]thiophene-2-carboxamide]	0.14 µM	0.24 µM	0.11 µM
CC(C)Oc1cc(CN2CCNCC2)cc(C(C)(C)c2cc(Br)cc(NC(=O)c3cc4cc(NS(C)(=O)=O)ccc4s3)c2)c1 [Example 124, N-(3-bromo-5-(2-(3-isopropoxy-5-(piperazin-1-ylmethyl)phenyl)propan-2-yl)phenyl)-5-(methylsulfonamido)benzo[b]thiophene-2-carboxamide]	4 µM	6.5 µM	2.1 µM
CC(C)Oc1cc(OC(F)(F)F)cc(C(C)(C)c2cc(Cl)cc(NC(=O)c3cc4cc(NS(C)(=O)=O)ccc4[s+]3[O-])c2)c1 (stereo not drawn) [Example 223, N-(3-chloro-5-(2-(3-isopropoxy-5-(trifluoromethoxy)phenyl)propan-2-yl)phenyl)-5-(methylsulfonamido)benzo[b]thiophene-2-carboxamide 1-oxide]	0.24 µM	0.17 µM	0.005 µM
CS(=O)(=O)Nc1cc2cc(C(=O)Nc3cc(Cl)cc(-c4ccc(F)cc4F)c3)sc2cc1Cl [Example 333, 6-chloro-N-(5-chloro-2′,4′-difluoro-[1,1′-biphenyl]-3-yl)-5-(methylsulfonamido)benzo[b]thiophene-2-carboxamide]	0.016 µM	0.015 µM	0.004 µM
CS(=O)(=O)Nc1ccc2sc(C(=O)Nc3cc(Cl)cc(Oc4ccc(Cl)c(OC(F)(F)F)c4)c3)cc2c1 [Example 468, N-(3-chloro-5-(4-chloro-3-(trifluoromethoxy)phenoxy)phenyl)-5-(methylsulfonamido)benzo[b]thiophene-2-carboxamide]	0.17 µM	0.04 µM	0.028 µM
CC(C)c1ccc(C(C)(C)c2cc(Cl)cc(NC(=O)c3cc4cc(NS(C)(=O)=O)c(Cl)cc4s3)c2)s1 [Example 180, 6-chloro-N-(3-chloro-5-(2-(5-isopropylthiophen-2-yl)propan-2-yl)phenyl)-5-(methylsulfonamido)benzo[b]thiophene-2-carboxamide]	0.01 µM	< 0.005 µM	< 0.005 µM
CS(=O)(=O)Nc1cc2cc(C(=O)Nc3cc(Cl)cc(Oc4ccc(F)c(F)c4)c3)sc2cc1Cl [Example 481, 6-chloro-N-(3-chloro-5-(3,4-difluorophenoxy)phenyl)-5-(methylsulfonamido)benzo[b]thiophene-2-carboxamide]	0.015 µM	0.036 µM	0.008 µM
CS(=O)(=O)Nc1ccc2sc(C(=O)Nc3cc(Cl)cc(Oc4cccc(Cl)c4)c3)cc2c1 [Example 456, N-(3-chloro-5-(3-chlorophenoxy)phenyl)-5-(methylsulfonamido)benzo[b]thiophene-2-carboxamide]	0.19 µM	0.3 µM	0.25 µM
CS(=O)(=O)Nc1ccc2sc(C(=O)Nc3cc(Cl)cc(Oc4cc(Cl)cc(OC(F)(F)F)c4)c3)cc2c1 [Example 467, N-(3-chloro-5-(3-chloro-5-(trifluoromethoxy)phenoxy)phenyl)-5-(methylsulfonamido)benzo[b]thiophene-2-carboxamide]	0.22 µM	0.039 µM	0.048 µM
